Structures can show the parent of a compound that is named as a salt. Where two headings read alike, the source gives them in different places.
What was measured:
hSGLT2 = target: T1, hSGLT2 (Homo sapiens, UniProt P31639); experiment: SGLT2 inhibition assay for validation of screening hits and similar compounds (1‐NBD‐glucose uptake, CHO‐hSGLT2 cells); type: cell-based; set-up: activity: dose or concentration left out as unconfirmed; conditions: for remaining activity at 5 µM / remaining activity at 50 µM: 0.5 h, concentration not given, read-out: NORMALIZED SGLT2 ACTIVITY (%); for remaining activity at 5 µM / remaining activity at 50 µM / activity: mean; for activity: compound, normalized 1-NBD-glucose uptake, CHO-hSGLT2 cells; for SGLT2/SGLT1 ACTIVITY RATIO 5 uM Mean: ratio of normalized SGLT2 to SGLT1 activity at 5 uM
T1 sequence (P31639 1-672): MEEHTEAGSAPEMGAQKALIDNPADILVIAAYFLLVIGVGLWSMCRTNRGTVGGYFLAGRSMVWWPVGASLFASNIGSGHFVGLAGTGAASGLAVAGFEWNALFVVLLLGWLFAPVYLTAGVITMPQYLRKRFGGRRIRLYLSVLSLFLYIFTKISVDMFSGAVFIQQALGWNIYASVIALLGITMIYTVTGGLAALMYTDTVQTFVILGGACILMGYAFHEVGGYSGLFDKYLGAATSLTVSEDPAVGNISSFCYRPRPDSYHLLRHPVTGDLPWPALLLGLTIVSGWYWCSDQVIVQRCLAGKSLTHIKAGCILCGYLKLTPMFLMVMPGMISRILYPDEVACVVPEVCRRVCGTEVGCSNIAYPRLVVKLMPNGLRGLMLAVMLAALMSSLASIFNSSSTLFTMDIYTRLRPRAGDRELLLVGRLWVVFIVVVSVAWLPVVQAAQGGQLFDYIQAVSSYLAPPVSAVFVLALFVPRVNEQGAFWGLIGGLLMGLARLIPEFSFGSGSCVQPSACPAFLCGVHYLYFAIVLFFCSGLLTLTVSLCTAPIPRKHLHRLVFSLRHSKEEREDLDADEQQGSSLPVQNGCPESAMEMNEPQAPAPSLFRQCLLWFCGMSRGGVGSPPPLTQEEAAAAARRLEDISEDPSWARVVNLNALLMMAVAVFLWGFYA

SGLT1 = target: T2, SGLT1 (Homo sapiens, UniProt P13866); experiment: SGLT1 inhibition assay for validation of screening hits and similar compounds (1‐NBD‐glucose uptake, CHO‐hSGLT1 cells); type: cell-based; set-up: activity: dose or concentration left out as unconfirmed; conditions: for remaining activity at 5 µM / remaining activity at 50 µM: 0.5 h, concentration not given, read-out: NORMALIZED SGLT1 ACTIVITY (%); for remaining activity at 5 µM / remaining activity at 50 µM / activity: mean; for activity: compound, normalized 1-NBD-glucose uptake, CHO-hSGLT1 cells; for inhibition at 50 µM: mean inhibition with 50 μmol/L inhibitor, read-out: SGLT1 inhibition; for SGLT1/2 inhibition stated in words: SGLT1 and/or SGLT2, discussion statements
T2 sequence (P13866 1-664): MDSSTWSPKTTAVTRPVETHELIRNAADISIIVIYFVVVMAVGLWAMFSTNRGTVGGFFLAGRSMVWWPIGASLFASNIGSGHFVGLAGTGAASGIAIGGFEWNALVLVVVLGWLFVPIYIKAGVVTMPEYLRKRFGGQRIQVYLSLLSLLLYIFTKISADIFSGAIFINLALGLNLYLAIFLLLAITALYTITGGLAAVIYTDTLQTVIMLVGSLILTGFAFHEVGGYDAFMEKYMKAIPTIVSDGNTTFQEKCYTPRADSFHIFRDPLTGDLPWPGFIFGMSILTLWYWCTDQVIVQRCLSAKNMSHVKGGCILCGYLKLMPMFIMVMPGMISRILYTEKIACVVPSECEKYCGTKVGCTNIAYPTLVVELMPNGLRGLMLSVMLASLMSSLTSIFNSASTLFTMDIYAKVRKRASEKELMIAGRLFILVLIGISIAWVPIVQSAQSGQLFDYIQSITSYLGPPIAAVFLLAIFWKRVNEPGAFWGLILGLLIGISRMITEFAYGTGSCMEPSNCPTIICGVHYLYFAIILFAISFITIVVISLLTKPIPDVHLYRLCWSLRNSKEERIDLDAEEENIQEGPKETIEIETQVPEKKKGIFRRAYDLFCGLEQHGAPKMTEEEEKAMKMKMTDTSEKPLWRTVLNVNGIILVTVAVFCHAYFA

CHO‐hSGLT1/2 cells = experiment: Cytotoxicity assay (ToxiLight, adenylate kinase leakage into CHO‐SGLT1/2 inhibition assay media); set-up: CYTOTOXICITY / CY[…], mean / CYTOTOXICITY (% of vehicle control) Mean / CYTOTOXICITY, mean / CY[…] (% of vehicle control) Mean: dose or concentration left out as unconfirmed; conditions: mean;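 note: bioluminescent read-out of adenylate kinase released from lysed cells into the medium, given relative to DMSO vehicle control defined as 0%, higher meaning more cytolysis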
transporters = system: transporters; set-up: method as in earlier work; conditions: known transporter targets, per category of inhibited transporters, cited from earlier work

SMILES	remaining activity at 5 µM (hSGLT2)	remaining activity at 50 µM (hSGLT2)	remaining activity at 5 µM (SGLT1)	remaining activity at 50 µM (SGLT1)	activity (hSGLT2)	SGLT2/SGLT1 ACTIVITY RATIO 5 uM Mean (hSGLT2)	activity (SGLT1)	CYTOTOXICITY (% of vehicle control) Mean (CHO‐hSGLT1/2 cells)	other results
COc1cc(/C=C/c2ccc(O)cc2)cc(OC)c1 [Pterostilbene]	102%	123%	100%	119%					CYTOTOXICITY (CHO‐hSGLT1/2 cells): -42
C[C@@H]1O[C@@H](O[C@H]2[C@H](O[C@H]3CC[C@]4(C)[C@H]5CC=C6[C@@H]7CC(C)(C)CC[C@]7(C(=O)O)CC[C@@]6(CO)[C@]5(C)CC[C@H]4C3(C)C)OC[C@H](O[C@@H]3O[C@H](CO)[C@@H](O)[C@H](O)[C@H]3O)[C@@H]2O)[C@H](O)[C@H](O)[C@H]1O [Raddeanoside 20]	116%	116%	103%	99%					CYTOTOXICITY (CHO‐hSGLT1/2 cells): -24
CCCN1CCCC[C@H]1C(=O)Nc1c(C)cccc1C [Ropivacaine HCl monohydrate]	86%	67%	97%	70%					CY[…] 50 mM (CHO‐hSGLT1/2 cells; at 50 mM (so in the source)): 0.836
COc1cc(O[C@@H]2O[C@H](CO)[C@@H](O)[C@H](O)[C@H]2O)c2c(c1)O[C@H](c1ccc(O)cc1)CC2=O [Sakuranin]					100%	1.0	98%	-1.5 % of vehicle control	
CC(=O)OC1c2c(ccc3ccc(=O)oc23)OC(C)(C)C1OC(=O)C=C(C)C (centres unmarked) [Samidin]					94%	1.1	85%	-10 % of vehicle control	
C/C=C(/C)C(=O)O[C@@H]1Cc2c(ccc3ccc(=O)oc23)OC1(C)C [Selinidin]					94%	0.952	99%	-6 % of vehicle control	inhibition at 50 µM (hSGLT2; mean inhibition with 50 μmol/L inhibitor): 25%; inhibition at 50 µM (SGLT1): 12%
COc1cc(/C=C/c2cc(O)cc(O)c2)c2c(c1)O[C@H](c1ccc(OC)c(O)c1)[C@H]2c1cc(O)cc(O)c1 [Shegansu B]	101%	103%	100%	100%					CYTOTOXICITY (CHO‐hSGLT1/2 cells): -25
COc1ccc(-c2coc3cc(O[C@@H]4O[C@H](CO)[C@@H](O)[C@H](O)[C@H]4O)cc(O)c3c2=O)cc1 [Sissotrin]					106%	1.1	99%	-23 % of vehicle control	
COc1cc(O)cc(/C=C/c2cccc(O)c2)c1 [Thunalbene]	108%	148%	106%	145%					CYTOTOXICITY (CHO‐hSGLT1/2 cells): -81
CN1[C@@H]2CC[C@H]1C[C@@H](OC(c1ccccc1)c1ccccc1)C2 [benztropine]									INHIBITED TRANSPORTERS (transporters): SLC6A2, SLC6A3, SCN10A
CC1(C)Oc2ccc3ccc(=O)oc3c2[C@H](O)[C@@H]1O [cis-Khellactone]					95%	0.9	102%	-9 % of vehicle control	
CCC(C)C(=O)O[C@H]1[C@H](OC(C)=O)c2c(ccc3ccc(=O)oc23)OC1(C)C (some centres unmarked) [peucedanocoumarin I]					102%	1.1	95%	4.22 % of vehicle control	SGLT2/SGLT1‐50μmol/L (ratio of SGLT2 to SGLT1 activities with 50 μmol/L inhibitor) (SGLT1): 2
CC=C(C)C(=O)O[C@@H]1[C@H](OC(C)=O)c2c(ccc3ccc(=O)oc23)OC1(C)C [praeruptorin A]					111%	1.2	93%	-0.825 % of vehicle control	SGLT2/SGLT1‐50μmol/L (ratio of SGLT2 to SGLT1 activities with 50 μmol/L inhibitor) (SGLT1): 3.1
C/C=C(\C)C(=O)O[C@H]1c2c(ccc3ccc(=O)oc23)OC(C)(C)[C@H]1OC(=O)/C(C)=C/C [praeruptorin D]					110%	1.4	79%	-9 % of vehicle control	SGLT2/SGLT1‐50μmol/L (ratio of SGLT2 to SGLT1 activities with 50 μmol/L inhibitor) (SGLT1): 2.6
CC=C(C)C(=O)O[C@H]1[C@@H](OC(=O)CC(C)C)c2c(ccc3ccc(=O)oc23)OC1(C)C [praeruptorin E]					123%	1.7	73%	-1.25 % of vehicle control	SGLT2/SGLT1‐50μmol/L (ratio of SGLT2 to SGLT1 activities with 50 μmol/L inhibitor) (SGLT1): 3.1
Cc1nc2sccn2c(=O)c1CCN1CCC(=C(c2ccc(F)cc2)c2ccc(F)cc2)CC1 [ritanserin, reference compound]	64%	15%	76%	44%					SGLT2/SGLT1‐50μmol/L (ratio of SGLT2 to SGLT1 activities with 50 μmol/L inhibitor) (SGLT1): 0.3; CYTOTOXICITY (CHO‐hSGLT1/2 cells): -5.28
CCCN1CCCC[C@H]1C(=O)Nc1c(C)cccc1C [ropivacaine, reference compound]									SGLT1/2 inhibition stated in words (SGLT1): novel SGLT1/2 inhibitors; inhibition at 50 µM (SGLT1): 30%; INHIBITED TRANSPORTERS (transporters): SCN10A
CC(CN(C)C)CN1c2ccccc2CCc2ccccc21 (centres unmarked) [trimipramine, reference compound]									SGLT1/2 inhibition stated in words (SGLT1): novel SGLT1/2 inhibitors; inhibition at 50 µM (SGLT1): 43%; INHIBITED TRANSPORTERS (transporters): SLC6A2, SLC6A3, SLC6A4
COc1ccc(CCN(C)CCCC(C#N)(c2ccc(OC)c(OC)c2)C(C)C)cc1OC (centres unmarked) [verapamil]									INHIBITED TRANSPORTERS (transporters; sodium (co-)transporters): SLC6A4, SLC22A1, SLC22A4, SLC22A5
COc1ccc(-c2coc3cc(O[C@@H]4O[C@H](CO)[C@@H](O)[C@H](O)[C@H]4O)c(OC)cc3c2=O)cc1 [wistin]					98%	1.0	99%	-51 % of vehicle control	Cytotoxicity (percentage of bioluminescence of DMSO vehicle control, set at 0%) (CHO‐hSGLT1/2 cells; CHO‐SGLT1 and CHO‐SGLT2 data combined, ≥20% considered toxic): −51%
